Experimental data as given in patent US9758492B2, “IDO inhibitors” (Bristol-Myers Squibb Company, priority 2013, dated 2017).

molecular target: IDO (Homo sapiens, UniProt P14902); experiment: LLE_IDO_ABS_DR (IDO assay)
Sequence (P14902 whole entry): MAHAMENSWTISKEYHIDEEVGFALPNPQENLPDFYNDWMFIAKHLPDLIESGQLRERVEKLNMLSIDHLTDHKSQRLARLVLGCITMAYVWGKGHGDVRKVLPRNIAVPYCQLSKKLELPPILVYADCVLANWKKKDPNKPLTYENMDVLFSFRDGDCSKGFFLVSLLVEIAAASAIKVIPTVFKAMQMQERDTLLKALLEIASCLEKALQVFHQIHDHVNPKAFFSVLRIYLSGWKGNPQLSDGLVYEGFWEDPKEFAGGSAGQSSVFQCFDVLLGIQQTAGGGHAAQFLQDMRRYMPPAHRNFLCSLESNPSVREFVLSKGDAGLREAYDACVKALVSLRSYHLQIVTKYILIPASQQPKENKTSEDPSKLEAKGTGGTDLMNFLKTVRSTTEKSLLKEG

Row | IC50 [nM] | Compound
1 | 3.8 | Cc1ccc(NC(=O)Nc2cc(-c3ccccc3-c3nnn[nH]3)ccc2N(CC2CC2)C2CCCCC2)cc1 [Example 82, 1-(4-(cyclohexyl (cyclopropylmethyl)amino)-2′-(1H-tetrazol-5-yl)biphenyl-3-yl)-3-p-tolylurea]
2 | 20 | Cc1ccc(NC(=O)Nc2cc(-c3ccccc3C(=O)O)ccc2N(CC2CC2)C2CCCCC2)cc1 [Example 83, 4′-(cyclohexyl (cyclopropylmethyl)amino)-3′-(3-p-tolylureido)biphenyl-2-carboxylic acid]
3 | 2110 | Cc1ccc(NC(=O)Nc2cc(-c3ccccc3NS(=O)(=O)CC(F)(F)F)ccc2N(CC(C)C)CC(C)C)cc1 [Example 84, N-(4′-(diisobutylamino)-3′-(3-p-tolylureido)biphenyl-2-yl)-2,2,2-trifluoroethane-sulfonamide]
4 | 1.65 | CCCN(c1ccc(-c2ccccc2-c2nnn[nH]2)cc1NC(=O)Nc1ccc(C)cc1)C1CCCCC1 [Example 85, 1-(4-(cyclohexyl(propyl)amino)-2′-(1H-tetrazol-5-yl)biphenyl-3-yl)-3-p-tolylurea]
5 | 4.16 | CCCN(c1ccc(-c2ccccc2C(=O)O)cc1NC(=O)Nc1ccc(C)cc1)C1CCCCC1 [Example 86, 4′-(cyclohexyl(propyl)amino)-3′-(3-p-tolylureido)biphenyl-2-carboxylic acid]
6 | 3.68 | CCCN(c1ccc(-c2cc(F)ccc2C(=O)O)cc1NC(=O)Nc1ccc(C)cc1)C1CCCCC1 [Example 87, 4′-(cyclohexyl (propyl)amino)-5-fluoro-3′-(3-p-tolylureido) biphenyl-2-carboxylic acid]
7 | 9.82 | CCCCN(CCCC)c1ccc(-c2ccccc2-c2nnn[nH]2)cc1NC(=O)Nc1ccc(C)cc1 [Example 88, 1-(4-(dibutylamino)-2′-(1H-tetrazol-5-yl)biphenyl-3-yl)-3-p-tolylurea]
8 | 50 | CCCCN(CCCC)c1ccc(-c2ccccc2C(=O)O)cc1NC(=O)Nc1ccc(C)cc1 [Example 89, 4′-(dibutylamino)-3′-(3-p-tolylureido) biphenyl-2-carboxylic acid]
9 | 10 | CCCCN(CCCC)c1ccc(-c2cc(F)ccc2C(=O)O)cc1NC(=O)Nc1ccc(C)cc1 [Example 90, 4′-(dibutylamino)-5-fluoro-3′-(3-p-tolylureido)biphenyl-2-carboxylic acid]
10 | 60 | CCCCN(CCCC)c1ccc(-c2sccc2C(=O)O)cc1NC(=O)Nc1ccc(C)cc1 [Example 91, 2-(4-(dibutylamino)-3-(3-p-tolylureido)phenyl)thiophene-3-carboxylic acid]
11 | 20 | Cc1ccc(NC(=O)Nc2cc(-c3ccccc3-c3nnn[nH]3)ccc2N(CC(C)C)CC2CC2)cc1 [Example 92, 1-(4-((cyclopropylmethyl) (isobutyl)amino)-2′-(1H-tetrazol-5-yl)biphenyl-3-yl)-3-p-tolylurea]
12 | 80 | Cc1ccc(NC(=O)Nc2cc(-c3ccccc3C(=O)O)ccc2N(CC(C)C)CC2CC2)cc1 [Example 93, 4′-((cyclopropylmethyl) (isobutyl)amino)-3′-(3-p-tolylureido) biphenyl-2-carboxylic acid]
13 | 1180 | Cc1ccc(NC(=O)Nc2cc(-c3ccccc3C(=O)C(C#N)S(C)(=O)=O)ccc2N(CC(C)C)CC(C)C)cc1 (centres unmarked) [Example 96, 1-(2′-(2-cyano-2-(methylsulfonyl)acetyl)-4-(diisobutylamino)biphenyl-3-yl)-3-p-tolylurea]
14 | 4640 | Cc1ccc(NC(=O)Nc2cc(-c3cccc(C(=O)O)c3)ccc2N(CC(C)C)CC2CCC2)cc1 [Example 97, 4′-((cyclobutylmethyl) (isobutyl)amino)-3′-(3-p-tolylureido)biphenyl-3-carboxylic acid]
15 | 30 | Cc1ccc(NC(=O)Nc2cc(-c3ccccc3-c3nnn[nH]3)ccc2N(CC(C)C)CC2CCC2)cc1 [Example 98, 1-(4-((cyclobutylmethyl) (isobutyl)amino)-2′-(1H-tetrazol-5-yl)biphenyl-3-yl)-3-p-tolylurea]
16 | 90 | Cc1ccc(NC(=O)Nc2cc(-c3cc(F)ccc3C(=O)O)ccc2N(CC(C)C)CC2CCC2)cc1 [Example 99, 4′-((cyclobutylmethyl) (isobutyl)amino)-5-fluoro-3′-(3-p-tolylureido)biphenyl-2-carboxylic acid]
17 | 90 | Cc1ccc(NC(=O)Nc2cc(-c3ccccc3C(=O)O)ccc2N(CC(C)C)CC2CCC2)cc1 [Example 100, 4′-((cyclobutylmethyl) (isobutyl)amino)-3′-(3-p-tolylureido)biphenyl-2-carboxylic acid]
18 | 10 | Cc1ccc(NC(=O)Nc2cc(-c3c(C(=O)O)cccc3N(C)C)ccc2N(CC(C)C)CC(C)C)cc1 [Example 101, 4′-(diisobutylamino)-6-(dimethylamino)-3′-(3-p-tolylureido) biphenyl-2-carboxylic acid]
19 | 210 | CCn1nc(C)c(-c2ccc(N(CC(C)C)CC(C)C)c(NC(=O)Nc3ccc(C)cc3)c2)c1C(=O)O [Example 102, 4-(4-(diisobutylamino)-3-(3-p-tolylureido)phenyl)-1-ethyl-3-methyl-1H-pyrazole-5-carboxylic acid]

Row | IC50 [nM] | Compound
20 | 1760 | Cc1ccc(NC(=O)Nc2cc(-c3scnc3C(=O)O)ccc2N(CC(C)C)CC(C)C)cc1 [Example 103, 5-(4-(diisobutylamino)-3-(3-p-tolylureido)phenyl)thiazole-4-carboxylic acid]
21 | 100 | Cc1ccc(NC(=O)Nc2cc(-c3ccccc3C(=O)O)ccc2N(C)C2CCC(F)(F)CC2)cc1 [Example 104, 4′-((4,4-difluoro-cyclohexyl) (methyl)amino)-3′-(3-p-tolylureido)biphenyl-2-carboxylic acid]
22 | 190 | Cc1ccc(NC(=O)Nc2cc(-c3cc(F)ccc3C(=O)O)ccc2N(C)C2CCC(F)(F)CC2)cc1 [Example 105, 4′-((4,4-difluoro-cyclohexyl) (methyl)amino)-5-fluoro-3′-(3-p-tolylureido) biphenyl-2-carboxylic acid]
23 | 8.81 | Cc1ccc(NC(=O)Nc2cc(-c3ccccc3-c3nnn[nH]3)ccc2N(C)C2CCC(F)(F)CC2)cc1 [Example 106, 1-(4-((4,4-difluoro-cyclohexyl) (methyl)amino)-2′-(1H-tetrazol-5-yl)biphenyl-3-yl)-3-p-tolylurea]
24 | 1860 | CCC1CCCCN1c1ccc(-c2ccccc2C(=O)O)cc1NC(=O)Nc1ccc(C)cc1 (centres unmarked) [Example 107, 4′-(2-ethylpiperidin-1-yl)-3′-(3-p-tolylureido)biphenyl-2-carboxylic acid]
25 | 250 | CCN(CC(C)(C)C)c1ccc(-c2ccccc2C(=O)O)cc1NC(=O)Nc1ccccc1F [Example 108, 4′-(ethyl(neopentyl)amino)-3′-(3-(2-fluorophenyl)ureido) biphenyl-2-carboxylic acid]
26 | 410 | CCC1CCCCN1c1ccc(-c2ccccc2-c2nnn[nH]2)cc1NC(=O)Nc1ccccc1F (centres unmarked) [Example 109, 1-(4-(2-ethylpiperidin-1-yl)-2′-(1H-tetrazol-5-yl)biphenyl-3-yl)-3-(2-fluorophenyl)urea]
27 | 40 | CCN(CC(C)(C)C)c1ccc(-c2ccccc2-c2nnn[nH]2)cc1NC(=O)Nc1ccc(C)cc1 [Example 110, 1-(4-(ethyl(neopentyl)amino)-2′-(1H-tetrazol-5-yl)biphenyl-3-yl)-3-p-tolylurea]
28 | 210 | CCN(CC(C)(C)C)c1ccc(-c2ccccc2C(=O)O)cc1NC(=O)Nc1ccc(C)cc1 [Example 111, 4′-(ethyl(neopentyl)amino)-3′-(3-p-tolylureido)biphenyl-2-carboxylic acid]
29 | 30 | CCN(CC(C)(C)C)c1ccc(-c2ccccc2-c2nnn[nH]2)cc1NC(=O)Nc1ccccc1F [Example 112, 1-(4-(ethyl(neopentyl)amino)-2′-(1H-tetrazol-5-yl)biphenyl-3-yl)-3-(2-fluorophenyl)urea]
30 | 400 | CCN(CC(C)(C)C)c1ccc(-c2cc(F)ccc2C(=O)O)cc1NC(=O)Nc1ccc(C)cc1 [Example 113, 4′-(ethyl(neopentyl)amino)-5-fluoro-3′-(3-p-tolylureido)biphenyl-2-carboxylic acid]
31 | 160 | CCC1CCCCN1c1ccc(-c2ccccc2-c2nnn[nH]2)cc1NC(=O)Nc1ccc(C)cc1 (centres unmarked) [Example 114, 1-(4-(2-ethylpiperidin-1-yl)-2′-(1H-tetrazol-5-yl)biphenyl-3-yl)-3-p-tolylurea]
32 | 350 | CCN(CC(C)(C)C)c1ccc(-c2cc(F)ccc2C(=O)O)cc1NC(=O)Nc1ccccc1F [Example 115, 4′-(ethyl(neopentyl)amino)-5-fluoro-3′-(3-(2-fluorophenyl)ureido) biphenyl-2-carboxylic acid]
33 | 2340 | CCC1CCCCN1c1ccc(-c2ccccc2C(=O)O)cc1NC(=O)Nc1ccccc1F (centres unmarked) [Example 116, 4′-(2-ethylpiperidin-1-yl)-3′-(3-(2-fluorophenyl)ureido) biphenyl-2-carboxylic acid]
34 | 10 | COc1ccc(-c2ccc(N(CC(C)C)CC(C)C)c(NC(=O)Nc3ccc(C)cc3)c2)c(-c2nnn[nH]2)c1 [Example 117, 1-(4-(diisobutylamino)-4′-methoxy-2′-(1H-tetrazol-5-yl)biphenyl-3-yl)-3-p-tolylurea]
35 | 4.76 | Cc1ccc(NC(=O)Nc2cc(-c3ccccc3-c3nnn[nH]3)ccc2N(CC(C)C)C2CCCCC2)cc1 [Example 118, 1-(4-(cyclohexyl(isobutyl)amino)-2′-(1H-tetrazol-5-yl)biphenyl-3-yl)-3-p-tolylurea]
36 | 5.19 | Cc1ccc(NC(=O)Nc2cc(-c3ccccc3C(=O)O)ccc2N(CC(C)C)C2CCCCC2)cc1 [Example 119, 4′-(cyclohexyl (isobutyl)amino)-3′-(3-p-tolylureido)biphenyl-2-carboxylic acid]
37 | 30 | Cc1ccc(NC(=O)Nc2cc(-c3ccc(Cl)cc3C(=O)O)ccc2N(CC(C)C)C2CCCCC2)cc1 [Example 120, 4-chloro-4′-(cyclohexyl(isobutyl)amino)-3′-(3-p-tolylureido)biphenyl-2-carboxylic acid]
38 | 2.59 | CC(C)CN(c1ccc(-c2ccccc2-c2nnn[nH]2)cc1NC(=O)Nc1ccccc1F)C1CCCCC1 [Example 121, 1-(4-(cyclohexyl(isobutyl)amino)-2′-(1H-tetrazol-5-yl)biphenyl-3-yl)-3-(2-fluorophenyl)urea]
